The subject of this experiment is Swiss mice, Sarcoma 180 sc, mean tumor weight T/C. Put plainly: NCI In Vivo Anticancer Drug Screen. Data for tumor model Sarcoma 180 (subcutaneous) in Swiss mice. The settings on record: endpoint: mean tumor weight, higher = larger tumour. A digest of the protocol:
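T/C ratio: treated over vehicle-treated controls, measuring survival or tumor size in transplanted-tumor mice.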

The mark [1] stands for this setting: dose: 90.0 mg/kg/injection, schedule: Q01DX007 (ip), vehicle: carboxymethylcellulose (CMC).
The mark [2] stands for this setting: dose: 100.0 mg/kg/injection, schedule: Q01DX007 (ip), vehicle: carboxymethylcellulose (CMC).
Setting [3] is: dose: 80.0 mg/kg/injection, schedule: Q01DX007 (ip), vehicle: carboxymethylcellulose (CMC).

Each structure is given as a SMILES string. Values joined by “and” are separate entries in the source; they are usually repeats but may differ in a detail not shown here. Equal entries are not always repeated.

As for `CCSc1nc(Cl)cc(Sc2nc(N)nc3nc[nH]c23)n1`, the T/C (usually the ratio of treated to control) runs as follows: (dose: 9.0 mg/kg/injection, schedule: Q01DX007 (ip), vehicle: other) 75 % of control; (dose: 18.0 mg/kg/injection, schedule: Q01DX007 (ip), vehicle: methylcellulose (MC)) 91 % of control; (dose: 18.0 mg/kg/injection, schedule: Q01DX007 (ip), vehicle: other) 116 % of control; (dose: 36.0 mg/kg/injection, schedule: Q01DX007 (ip), vehicle: methylcellulose (MC)) 95 % of control; (dose: 72.0 mg/kg/injection, schedule: Q01DX007 (ip), vehicle: methylcellulose (MC)) 76 % of control; (dose: 72.0 mg/kg/injection, schedule: Q01DX007 (ip), vehicle: other) 32 % of control. In addition, the T/C reads like this: (dose: 124.0 mg/kg/injection, schedule: Q01DX007 (ip), vehicle: carboxymethylcellulose (CMC)) 73 % of control; (dose: 144.0 mg/kg/injection, schedule: Q01DX007 (ip), vehicle: methylcellulose (MC)) 44 % of control and 57 % of control; (dose: 188.0 mg/kg/injection, schedule: Q01DX007 (ip), vehicle: carboxymethylcellulose (CMC)) 44 % of control; (dose: 277.0 mg/kg/injection, schedule: Q01DX007 (ip), vehicle: carboxymethylcellulose (CMC)) 47 % of control; (dose: 281.0 mg/kg/injection, schedule: Q01DX007 (ip), vehicle: carboxymethylcellulose (CMC)) 76 % of control; (dose: 288.0 mg/kg/injection, schedule: Q01DX007 (ip), vehicle: methylcellulose (MC)) 52 % of control and 61 % of control. Further, the T/C was 35 % of control and 40 % of control (dose: 422.0 mg/kg/injection, schedule: Q01DX007 (ip), vehicle: carboxymethylcellulose (CMC)); 100 % of control (dose: 435.0 mg/kg/injection, schedule: Q01DX007 (ip), vehicle: methylcellulose (MC)); 37 % of control (dose: 630.0 mg/kg/injection, schedule: Q01DX007 (ip), vehicle: carboxymethylcellulose (CMC)); 47 % of control (dose: 945.0 mg/kg/injection, schedule: Q01DX007 (ip), vehicle: carboxymethylcellulose (CMC)).

As for `CS(=O)(=O)OCCCCCOS(C)(=O)=O`, the T/C by setting is: (dose: 16.5 mg/kg/injection, schedule: Q#A X014 (ip), vehicle: methylcellulose (MC)) 54 % of control and 65 % of control; (dose: 37.5 mg/kg/injection, schedule: Q#A X014 (ip), vehicle: methylcellulose (MC)) 54 % of control; (dose: 56.5 mg/kg/injection, schedule: Q#A X014 (ip), vehicle: methylcellulose (MC)) 9 % of control.

Regarding `NC(=O)c1n[se]nc1N`, the T/C (dose: 1.0 mg/kg/injection, schedule: Q01DX007 (ip), vehicle: carboxymethylcellulose (CMC)) was 65 % of control and the T/C (dose: 2.0 mg/kg/injection, schedule: Q01DX007 (ip), vehicle: carboxymethylcellulose (CMC)) is 99 % of control.

As to `CC1C[C@@H]2[C@H]([C@@H](O)C[C@@]3(C)[C@H]2CC[C@]3(O)C(=O)CF)[C@@]2(C)CCC(=O)C=C12` (stereo not given in full), the T/C reads like this: (dose: 5.2 mg/kg/injection, schedule: Q01DX007 (sc), vehicle: steriod suspending solution) 106 % of control; (dose: 10.5 mg/kg/injection, schedule: Q01DX007 (sc), vehicle: steriod suspending solution) 105 % of control; (dose: 21.2 mg/kg/injection, schedule: Q01DX007 (sc), vehicle: steriod suspending solution) 81 % of control; (dose: 42.5 mg/kg/injection, schedule: Q01DX007 (sc), vehicle: steriod suspending solution) 45 % of control; (dose: 62.0 mg/kg/injection, schedule: Q#A X014 (sc), vehicle: steriod suspending solution) 55 % of control and 57 % of control; (dose: 85.0 mg/kg/injection, schedule: Q01DX007 (sc), vehicle: steriod suspending solution) 25 % of control. Also, the T/C is 36 % of control and 41 % of control and 50 % of control (dose: 93.5 mg/kg/injection, schedule: Q#A X014 (sc), vehicle: steriod suspending solution); 38 % of control and 52 % of control (dose: 210.75 mg/kg/injection, schedule: Q#A X014 (sc), vehicle: steriod suspending solution); 26 % of control (dose: 300.0 mg/kg/injection, schedule: Q01DX007 (sc), vehicle: steriod suspending solution); 20 % of control (dose: 600.0 mg/kg/injection, schedule: Q01DX007 (sc), vehicle: steriod suspending solution).

Turning to `CCSCCC(N)C(=O)O` (stereo not given), the T/C is, setting by setting: (dose: 9.37 mg/kg/injection, schedule: Q#A X014 (ip), vehicle: carboxymethylcellulose (CMC)) 80 % of control; (dose: 18.2 mg/kg/injection, schedule: Q01DX007 (ip), vehicle: carboxymethylcellulose (CMC)) 115 % of control; (dose: 18.75 mg/kg/injection, schedule: Q#A X014 (ip), vehicle: carboxymethylcellulose (CMC)) 116 % of control; (dose: 25.0 mg/kg/injection, schedule: Q01DX007 (ip), vehicle: carboxymethylcellulose (CMC)) 102 % of control; (dose: 36.3 mg/kg/injection, schedule: Q01DX007 (ip), vehicle: carboxymethylcellulose (CMC)) 98 % of control; (dose: 37.5 mg/kg/injection, schedule: Q#A X014 (ip), vehicle: carboxymethylcellulose (CMC)) 40 % of control. Also, the T/C (dose: 50.0 mg/kg/injection, schedule: Q01DX007 (ip), vehicle: carboxymethylcellulose (CMC)) is 80 % of control; the T/C (dose: 72.5 mg/kg/injection, schedule: Q01DX007 (ip), vehicle: carboxymethylcellulose (CMC)) is 77 % of control; the T/C (dose: 75.0 mg/kg/injection, schedule: Q#A X014 (ip), vehicle: carboxymethylcellulose (CMC)) is 36 % of control; the T/C under setting [1] was 106 % of control; the T/C under setting [2] is 111 % of control; the T/C (dose: 108.0 mg/kg/injection, schedule: Q01DX007 (ip), vehicle: carboxymethylcellulose (CMC)) was 98 % of control. The T/C is 108 % of control (dose: 145.0 mg/kg/injection, schedule: Q01DX007 (ip), vehicle: carboxymethylcellulose (CMC)); 107 % of control (dose: 216.0 mg/kg/injection, schedule: Q01DX007 (ip), vehicle: carboxymethylcellulose (CMC)); 47 % of control (dose: 432.0 mg/kg/injection, schedule: Q01DX007 (ip), vehicle: carboxymethylcellulose (CMC)).

Regarding `Cc1cc2nc(Cc3nc4cc(C)c(C)cc4[nH]3)[nH]c2cc1C`, the T/C is 86 % of control (dose: 20.0 mg/kg/injection, schedule: Q01DX007 (ip), vehicle: carboxymethylcellulose (CMC)); 85 % of control (dose: 40.0 mg/kg/injection, schedule: Q01DX007 (ip), vehicle: carboxymethylcellulose (CMC)); 80 % of control and 81 % of control (dose: 60.0 mg/kg/injection, schedule: Q01DX007 (ip), vehicle: carboxymethylcellulose (CMC)); 102 % of control under setting [3]; 67 % of control under setting [1]; 122 % of control (dose: 120.0 mg/kg/injection, schedule: Q01DX007 (ip), vehicle: carboxymethylcellulose (CMC)). Also, the T/C reads like this: (dose: 160.0 mg/kg/injection, schedule: Q01DX007 (ip), vehicle: carboxymethylcellulose (CMC)) 77 % of control; (dose: 180.0 mg/kg/injection, schedule: Q01DX007 (ip), vehicle: carboxymethylcellulose (CMC)) 89 % of control; (dose: 210.0 mg/kg/injection, schedule: Q01DX007 (ip), vehicle: carboxymethylcellulose (CMC)) 61 % of control; (dose: 270.0 mg/kg/injection, schedule: Q01DX007 (ip), vehicle: carboxymethylcellulose (CMC)) 77 % of control; (dose: 320.0 mg/kg/injection, schedule: Q01DX007 (ip), vehicle: carboxymethylcellulose (CMC)) 90 % of control and 100 % of control; (dose: 478.0 mg/kg/injection, schedule: Q01DX007 (ip), vehicle: carboxymethylcellulose (CMC)) 57 % of control. Besides, the T/C (dose: 717.0 mg/kg/injection, schedule: Q01DX007 (ip), vehicle: carboxymethylcellulose (CMC)) was 65 % of control.

Take `CN(/N=N/c1nc[nH]c1C(N)=O)c1ccccc1`: the T/C reads like this: (dose: 15.5 mg/kg/injection, schedule: Q#A X014 (ip), vehicle: methylcellulose (MC)) 89 % of control; (dose: 31.0 mg/kg/injection, schedule: Q#A X014 (ip), vehicle: methylcellulose (MC)) 99 % of control; (dose: 62.5 mg/kg/injection, schedule: Q#A X014 (ip), vehicle: methylcellulose (MC)) 46 % of control.

Consider `C[C@H]1C[C@@H]2[C@H](C(=O)C[C@@]3(C)[C@H]2CC[C@]3(O)C(=O)CO)[C@@]2(C)C=CC(=O)C=C12`, for which the T/C was 41 % of control (dose: 221.0 mg/kg/injection, schedule: Q01DX007 (sc), vehicle: steriod suspending solution); 43 % of control and 65 % of control (dose: 330.0 mg/kg/injection, schedule: Q01DX007 (sc), vehicle: steriod suspending solution); 13 % of control (dose: 739.0 mg/kg/injection, schedule: Q01DX007 (sc), vehicle: steriod suspending solution).

For `CCCCCCCCCCCCCCCCNc1cccc2ccccc12`, the T/C is, setting by setting: (dose: 111.0 mg/kg/injection, schedule: Q#A X014 (ip), vehicle: methylcellulose (MC)) 64 % of control and 82 % of control; (dose: 166.5 mg/kg/injection, schedule: Q#A X014 (ip), vehicle: methylcellulose (MC)) 49 % of control and 66 % of control; (dose: 250.0 mg/kg/injection, schedule: Q#A X014 (ip), vehicle: methylcellulose (MC)) 41 % of control.

As to `CCCCNc1nc(NCCCC)c2nsnc2n1`, the T/C is 46 % of control under setting [3] and 56 % of control under setting [2].
